Measurements: patent US20220016277A1, “MACROCYCLIC COMPLEXES OF RADIONUCLIDES AND THEIR USE IN RADIOTHERAPY OF CANCER” (Cornell University, priority 2018, published 2022)

Experiment: Organ distribution of ^225Ac complexes following intravenous injection in mice
Assay type: in vivo, C57BL/6 mice
Method: In Vivo Biodistribution of ^225Ac Complexes of Macropa and DOTA. All experiments were approved by the Institutional Animal Care Committee (IACC) of the University of British Columbia and were performed in accordance with the Canadian Council on Animal Care Guidelines. A total of 9 female C57BL/6 mice (6-8 weeks old, 20-25 g) were used for the biodistribution study of each radiometal complex, n=3 for each time point.
Macropa (100 μL of a 1 mg/mL solution in NH4OAc) was diluted with 387 μL of NH4OAc (1 M, pH 7), and an aliquot (203 μL) of ^225Ac(NO3)3 (˜157 kBq) was then added; the pH of this solution was adjusted to 6.5-7 by the addition of 1 M NaOH (210 μL, trace metal grade). After 5 min at ambient temperature, the reaction solution was analyzed by TLC (0.4 M pH 4 sodium citrate as the eluent), which confirmed >95% radiochemical yield. The reaction was allowed to proceed overnight, and the radiochemical yield was again confirmed to be >95% the following morning. At this time, mice were anesthetized by 2% isoflurane, and approximately 100 μL (10-15 kBq) of the [^225Ac(macropa)]^+ complex were injected into the tail vein of each mouse. After injection, mice were allowed to recover and roam freely in their cages, and were euthanized by CO2 inhalation at 15 min, 1 h, or 5 h (n=3 at each time point) post-injection. Blood was collected by cardiac puncture and placed into an appropriate test tube for scintillation counting. Tissues collected included heart, liver, kidneys, lungs, small intestine, large intestine, brain, bladder, spleen, stomach, pancreas, bone, thyroid, tail, urine, and feces. Tissues were weighed and then counted with a calibrated gamma counter (Packard, Cobra II model 5002) using three energy windows: 60-120 keV (window A), 180-260 keV (window B), and 400-480 keV (window C). Counting was performed both immediately after sacrifice and after 7 days; counts were decay corrected from the time of injection and then converted to the percentage of injected dose (% ID) per gram of tissue (% ID/g). […]
The biodistribution studies of [^225Ac(DOTA)]^− and ^225Ac(NO3)3 were carried out as described above for [^225Ac(macropa)]^+, with the following modifications. [^225Ac(DOTA)^− was prepared by adding ^225Ac(NO3)3 (338 μL, 1.1 MBq) to a solution of DOTA (100 μg, 20 mg/mL in H2O) in NH4OAc (467 μL, 0.15 M, pH 7). The pH of the solution was adjusted to 7 using NH4OAc (150 μL, 1 M, pH 7) and the solution was heated at 85° C. for 45 min. RCY >99% was confirmed by TLC as described above. [^225Ac(DOTA)]^− was diluted with saline to a final concentration of 0.05 MBq/100 μL, and 100 μL were injected into each mouse. ^225Ac(NO3)3 (˜58 μL, 0.4 MBq) was diluted and injected in the same manner as [^225Ac(DOTA)]^−. One mouse that was to be euthanized at the 5 h time point in the [^225Ac(DOTA)]^− study died shortly after injection. In the same manner, one mouse that was to be euthanized at the 1 h time point in the ^225Ac(NO3)3 study died.
The in vivo stability [^225Ac(macropa)]^+ was examined by comparing its biodistribution to those of ^225Ac(NO3)3 and [^225Ac(DOTA)]^−. C57BL/6 mice were injected via tail vein with 10-50 kBq of each radiometal complex and were sacrificed after 15 min, 1 h, or 5 h. The amount of ^225Ac retained in each organ was quantified by gamma counting and reported as the percent of injected dose per gram of tissue (% ID/g). The results of these studies are compiled in Tables 1-3. Inadequate stability of an ^225Ac complex leading to the loss of radioisotope in vivo is manifested by the accumulation of ^225Ac in the liver, spleen, and bone of mice.^[11,12,32] […] The biodistribution profile of [^225Ac(macropa)]^+ (FIG. 3B) differs markedly from that of ^225Ac(NO3)3. […] Its biodistribution profile was similar to that of [^225Ac(DOTA)]^− (FIG. 3C), which has been previously shown to retain ^225Ac^3+ in vivo.^[7]

[1] = 15 min post i.v. injection, energy window A (60-120 keV)
[2] = 15 min post i.v. injection, energy window B (180-260 keV)
[3] = 15 min post i.v. injection, energy window C (400-480 keV)
[4] = 1 h post i.v. injection, energy window A (60-120 keV)
[5] = 1 h post i.v. injection, energy window B (180-260 keV)
[6] = 1 h post i.v. injection, energy window C (400-480 keV)
[7] = 5 h post i.v. injection, energy window A (60-120 keV)
[8] = 5 h post i.v. injection, energy window B (180-260 keV)
[9] = 5 h post i.v. injection, energy window C (400-480 keV)
[10] = C57BL/6 mice, i.v., 15 min to 5 h

## O=C([O-])c1cccc(CN2CCOCCOCCN(Cc3cccc(C(=O)[O-])n3)CCOCCOCC2)n1.[225Ac+3] [[^225Ac(macropa)]^+]
[1]
  Organ distribution: bladder: 46.74 % ID/g
  Organ distribution: blood: 5.11 % ID/g
  Organ distribution: bone (femur + joint): 2.52 % ID/g
  Organ distribution: brain: 0.26 % ID/g
  Organ distribution: feces: 0.91 % ID/g
  Organ distribution: heart: 2.19 % ID/g
  Organ distribution: kidneys: 27.55 % ID/g
  Organ distribution: large intestines: 2.40 % ID/g
  Organ distribution: liver: 2.28 % ID/g
  Organ distribution: lungs: 5.98 % ID/g
  Organ distribution: pancreas: 1.46 % ID/g
  Organ distribution: small intestines: 2.64 % ID/g
  Organ distribution: spleen: 2.52 % ID/g
  Organ distribution: stomach: 2.97 % ID/g
  Organ distribution: tail: 8.84 % ID/g
  Organ distribution: thyroids: 28.23 % ID/g
  Organ distribution: urine: 1378.82 % ID/g
[2]
  Organ distribution: bladder: 47.64 % ID/g
  Organ distribution: blood: 5.23 % ID/g
  Organ distribution: bone (femur + joint): 2.69 % ID/g
  Organ distribution: brain: 0.23 % ID/g
  Organ distribution: feces: 1.04 % ID/g
  Organ distribution: heart: 2.39 % ID/g
  Organ distribution: kidneys: 27.86 % ID/g
  Organ distribution: large intestines: 2.53 % ID/g
  Organ distribution: liver: 2.17 % ID/g
  Organ distribution: lungs: 5.83 % ID/g
  Organ distribution: pancreas: 1.63 % ID/g
  Organ distribution: small intestines: 2.59 % ID/g
  Organ distribution: spleen: 2.55 % ID/g
  Organ distribution: stomach: 3.29 % ID/g
  Organ distribution: tail: 9.39 % ID/g
  Organ distribution: thyroids: −2.22 % ID/g
  Organ distribution: urine: 1541.60 % ID/g
[3]
  Organ distribution: bladder: 64.68 % ID/g
  Organ distribution: blood: 6.49 % ID/g
  Organ distribution: bone (femur + joint): 3.74 % ID/g
  Organ distribution: brain: 0.17 % ID/g
  Organ distribution: feces: 1.26 % ID/g
  Organ distribution: heart: 2.87 % ID/g
  Organ distribution: kidneys: 33.46 % ID/g
  Organ distribution: large intestines: 3.02 % ID/g
  Organ distribution: liver: 2.72 % ID/g
  Organ distribution: lungs: 7.55 % ID/g
  Organ distribution: pancreas: 3.00 % ID/g
  Organ distribution: small intestines: 3.46 % ID/g
  Organ distribution: spleen: 3.79 % ID/g
  Organ distribution: stomach: 3.45 % ID/g
  Organ distribution: tail: 11.75 % ID/g
  Organ distribution: thyroids: −6.46 % ID/g
  Organ distribution: urine: 2387.66 % ID/g
[4]
  Organ distribution: bladder: 6.23 % ID/g
  Organ distribution: blood: 0.40 % ID/g
  Organ distribution: bone (femur + joint): 0.31 % ID/g
  Organ distribution: brain: 0.12 % ID/g
  Organ distribution: feces: 0.28 % ID/g
  Organ distribution: heart: 0.31 % ID/g
  Organ distribution: kidneys: 13.36 % ID/g
  Organ distribution: large intestines: 0.36 % ID/g
  Organ distribution: liver: 0.75 % ID/g
  Organ distribution: lungs: 0.51 % ID/g
  Organ distribution: pancreas: 0.19 % ID/g
  Organ distribution: small intestines: 1.10 % ID/g
  Organ distribution: spleen: 0.51 % ID/g
  Organ distribution: stomach: 0.41 % ID/g
  Organ distribution: tail: 1.82 % ID/g
  Organ distribution: thyroids: 3.18 % ID/g
  Organ distribution: urine: 489.11 % ID/g
[5]
  Organ distribution: bladder: 5.92 % ID/g
  Organ distribution: blood: 0.39 % ID/g
  Organ distribution: bone (femur + joint): 0.17 % ID/g
  Organ distribution: brain: 0.12 % ID/g
  Organ distribution: feces: 0.27 % ID/g
  Organ distribution: heart: 0.20 % ID/g
  Organ distribution: kidneys: 12.97 % ID/g
  Organ distribution: large intestines: 0.22 % ID/g
  Organ distribution: liver: 0.70 % ID/g
  Organ distribution: lungs: 0.54 % ID/g
  Organ distribution: pancreas: 0.12 % ID/g
  Organ distribution: small intestines: 0.94 % ID/g
  Organ distribution: spleen: 0.23 % ID/g
  Organ distribution: stomach: 0.33 % ID/g
  Organ distribution: tail: 1.82 % ID/g
  Organ distribution: thyroids: 0.10 % ID/g
  Organ distribution: urine: 517.19 % ID/g
[6]
  Organ distribution: bladder: 9.00 % ID/g
  Organ distribution: blood: 0.54 % ID/g
  Organ distribution: bone (femur + joint): 0.70 % ID/g
  Organ distribution: brain: 0.23 % ID/g
  Organ distribution: feces: 0.69 % ID/g
  Organ distribution: heart: 0.23 % ID/g
  Organ distribution: kidneys: 17.38 % ID/g
  Organ distribution: large intestines: 0.79 % ID/g
  Organ distribution: liver: 1.08 % ID/g
  Organ distribution: lungs: 0.84 % ID/g
  Organ distribution: pancreas: 0.43 % ID/g
  Organ distribution: small intestines: 1.62 % ID/g
  Organ distribution: spleen: 0.48 % ID/g
  Organ distribution: stomach: 0.17 % ID/g
  Organ distribution: tail: 2.57 % ID/g
  Organ distribution: thyroids: 8.34 % ID/g
  Organ distribution: urine: 641.63 % ID/g
[7]
  Organ distribution: bladder: 4.25 % ID/g
  Organ distribution: blood: 0.01 % ID/g
  Organ distribution: bone (femur + joint): 0.05 % ID/g
  Organ distribution: brain: 0.02 % ID/g
  Organ distribution: feces: 3.46 % ID/g
  Organ distribution: heart: 0.10 % ID/g
  Organ distribution: kidneys: 0.74 % ID/g
  Organ distribution: large intestines: 0.49 % ID/g
  Organ distribution: liver: 0.39 % ID/g
  Organ distribution: lungs: 0.01 % ID/g
  Organ distribution: pancreas: 0.10 % ID/g
  Organ distribution: small intestines: 0.29 % ID/g
  Organ distribution: spleen: 0.11 % ID/g
  Organ distribution: stomach: 0.01 % ID/g
  Organ distribution: tail: 0.14 % ID/g
  Organ distribution: thyroids: 0.10 % ID/g
  Organ distribution: urine: 12.78 % ID/g
[8]
  Organ distribution: bladder: 3.69 % ID/g
  Organ distribution: blood: 0.00 % ID/g
  Organ distribution: bone (femur + joint): 0.02 % ID/g
  Organ distribution: brain: −0.01 % ID/g
  Organ distribution: feces: 3.49 % ID/g
  Organ distribution: heart: −0.04 % ID/g
  Organ distribution: kidneys: 0.78 % ID/g
  Organ distribution: large intestines: 0.45 % ID/g
  Organ distribution: liver: 0.36 % ID/g
  Organ distribution: lungs: −0.05 % ID/g
  Organ distribution: pancreas: −0.12 % ID/g
  Organ distribution: small intestines: 0.29 % ID/g
  Organ distribution: spleen: 0.09 % ID/g
  Organ distribution: stomach: 0.04 % ID/g
  Organ distribution: tail: 0.13 % ID/g
  Organ distribution: thyroids: −6.94 % ID/g
  Organ distribution: urine: 13.51 % ID/g
[9]
  Organ distribution: bladder: 8.52 % ID/g
  Organ distribution: blood: 0.04 % ID/g
  Organ distribution: bone (femur + joint): 0.08 % ID/g
  Organ distribution: brain: −0.01 % ID/g
  Organ distribution: feces: 5.27 % ID/g
  Organ distribution: heart: 0.28 % ID/g
  Organ distribution: kidneys: 1.07 % ID/g
  Organ distribution: large intestines: 0.68 % ID/g
  Organ distribution: liver: 0.55 % ID/g
  Organ distribution: lungs: 0.15 % ID/g
  Organ distribution: pancreas: 0.13 % ID/g
  Organ distribution: small intestines: 0.42 % ID/g
  Organ distribution: spleen: 0.43 % ID/g
  Organ distribution: stomach: 0.13 % ID/g
  Organ distribution: tail: 0.28 % ID/g
  Organ distribution: thyroids: 19.89 % ID/g
  Organ distribution: urine: 22.27 % ID/g
[10]
  blood clearance and excretion (in words): rapidly cleared from mice
  organ accumulation (in words): did not accumulate in any organ
